Patent publication US12090163B2, “Pharmaceutical compositions” (CIPLA LIMITED, priority 2017, dated 2024)
Read-outs that look alike come from different tables or passages of the source.

Columns and labels:
HIV-1NL4-3 = experiment: Two-drug combination anti-HIV assay in MT4 cells, MacSynergy II analysis; format: cell-based; design: Antiviral Activity Synergy volume / Antiviral Activity Antagonism volume: unit not given here
Description: (§1) This two-drug combination analysis study was performed using the Prichard and Shipman MacSynergy II three dimensional model for statistical evaluation of combination anti-HIV assays. Using a standardized microtiter plate format, each combination assay was performed in MT4 cells acutely infected with HIV-1NL4-3.
(§2) MT4 cells (obtained from the NIH AIDS Research and Reference Reagent Program) were passaged in T-75 flasks prior to use in the antiviral assay. On the day preceding the assay, the cells were split 1:2 to assure they were in an exponential growth phase at the time of infection. Total cell and viability quantification was performed using a hemacytometer and trypan blue exclusion. Cells with greater than 95% cell viability were utilized in the assay. The cells were re-suspended in tissue culture medium and added to the drug-containing microtiter plates in a volume of 110 μL and at a seeding density of 5.0×10^3 cells/well.
(§3) Combination antiviral efficacy was evaluated on three identical assay plates (i.e., triplicate measurements) that included cell control wells (cells only) and virus control wells (cells plus virus). Combination cytotoxicity was evaluated in parallel on two identical assay plates (i.e., duplicate measurements) that included cell control wells.

MT4 cells = experiment: Two-drug combination cytotoxicity in uninfected MT4 cells, MacSynergy II analysis
Description: as §1, §2, §3

[1] = two-drug combination with the pivalate fumarate, HIV-1NL4-3 in MT4 cells
[2] = two-drug combination with the pivalate fumarate, MT4 cells infected with HIV-1NL4-3
[3] = two-drug combination with the pivalate fumarate, uninfected MT4 cells

Compound	Interpretation Antiviral (HIV-1NL4-3; [1])	Antiviral Activity Antagonism volume (HIV-1NL4-3; [2])	Antiviral Activity Synergy volume (HIV-1NL4-3; [2])	other results
C[C@@H]1CCO[C@H]2Cn3cc(C(=O)NCc4ccc(F)cc4F)c(=O)c(O)c3C(=O)N12 [Dolutegravir]	Additive	−4.46	17.9	
COC(=O)N[C@H](C(=O)N[C@@H](Cc1ccccc1)[C@@H](O)CN(Cc1ccc(-c2ccccn2)cc1)NC(=O)[C@@H](NC(=O)OC)C(C)(C)C)C(C)(C)C [Atazanavir]	Additive	−3.50	39.1	
Tenofovir alafenamide hemifumarate [TAF]	Additive	−47.1	41.2	Cytotoxicity Antagonism volume (MT4 cells; [3]): 0/0; Cytotoxicity Synergy volume (MT4 cells; [3]): 0/0; Interpretation Cytotoxicity (MT4 cells; [3]): Additive
CC(C)c1nc(CN(C)C(=O)N[C@@H](CCN2CCOCC2)C(=O)N[C@H](CC[C@H](Cc2ccccc2)NC(=O)OCc2cncs2)Cc2ccccc2)cs1 [Cobicistat]	Additive	−6.12	0	
Nc1nc(=O)n([C@@H]2CS[C@H](CO)O2)cc1F [Emtricitabine]		−8.75	98.8	
Cc1nnc(C(=O)NC(C)(C)c2nc(C(=O)NCc3ccc(F)cc3)c(O)c(=O)n2C)o1 [Raltegravir]				Antiviral Activity Antagonism volume (HIV-1NL4-3): 1.61/−2.72; Antiviral Activity Synergy volume (HIV-1NL4-3): 1.61/−2.72; Interpretation Antiviral (HIV-1NL4-3): Additive; Cytotoxicity Antagonism volume (MT4 cells; [3]): −4.70; Interpretation Cytotoxicity (MT4 cells; [3]): Additive
CC(C)CN(C[C@@H](O)[C@H](Cc1ccccc1)NC(=O)O[C@H]1CO[C@H]2OCC[C@H]21)S(=O)(=O)c1ccc(N)cc1 [Darunavir]				Antiviral Activity Antagonism volume (HIV-1NL4-3): 188/−36.5; Antiviral Activity Synergy volume (HIV-1NL4-3): 188/−36.5
O=C1Nc2ccc(Cl)cc2[C@@](C#CC2CC2)(C(F)(F)F)O1 [Efavirenz]		−5.92	79.0	
Cc1ccnc2c1NC(=O)c1cccnc1N2C1CC1 [Nevirapine]	Additive	−9.09	47.6	
COc1cc2c(cc1Cc1cccc(Cl)c1F)c(=O)c(C(=O)O)cn2[C@H](CO)C(C)C [Elvitegravir]		0	67.3	
C[C@H](Cn1cnc2c(N)ncnc21)OCP(=O)(O)O [Tenofovir, 9-R-[(2-phosphonomethoxy)propyl]adenine]				Antiviral Activity Antagonism volume (HIV-1NL4-3): 79.0/−7.08; Antiviral Activity Synergy volume (HIV-1NL4-3): 79.0/−7.08; Cytotoxicity Antagonism volume (MT4 cells): 0/0; Cytotoxicity Synergy volume (MT4 cells): 0/0; Interpretation Cytotoxicity (MT4 cells; [3]): Additive
